Measurements as given in paper PMC10916382, “Repurposing screen identifies novel candidates for broad-spectrum coronavirus antivirals and druggable host targets” (Antimicrobial Agents and Chemotherapy, 2024).
Read-outs that look alike come from different tables or passages of the source.

Assays:
in vitro [1] = assay: in vitro
in vitro [2] = conditions: human
HCoV-229E = assay: microbe, parasite or virus in culture; assay type: cell-based, Homo sapiens sapiens; conditions: Human coronavirus 229E, Huh7.5, read-out: IC50 (µM), HCoV 229E
[3] = Huh-7.5/F-Luc cells, maximum tested dose 5 µM
[4] = Calu-3 cells, immunofluorescence imaging
[5] = Anti-SARS-CoV-2 screening on Calu-3 cells: viability [% of control], Calu-3 cells

| SMILES | viability at 48 h, 5 µM (in vitro [1]) | CC50 (µM) (Huh-7.5/F-Luc cells; [3]) | viability at 5 µM (in vitro [2]) | Anti-SARS-CoV-2 screening on Calu-3 cells: intracellular SARS-CoV-2 infection measured via immunofluorescence imaging [% of control] (SARS-CoV-2; [4]) | IC50 (HCoV-229E) | viability (in vitro [1]; [5]) | CC50 (µM) (Huh-7.5/F-Luc cells) | Anti-SARS-CoV-2 screening on Calu-3 cells: intracellular SARS-CoV-2 infection measured via immunofluorescence imaging [% of control] (SARS-CoV-2) | viability (in vitro [1]) |
| --- | --- | --- | --- | --- | --- | --- | --- | --- | --- |
| c1ccc2c(c1)Sc1ccccc1N2CC1CN2CCC1CC2 (centres unmarked) [RFM-000-842-4] | 110% | greater than maximum tested dose | 166% | 112.52 % of control | 1.6 µM | – | – | – | – |
| CN(C)CCC=C1c2ccccc2C(C)(C)c2ccccc21 [RFM-000-885-5] | – | greater than maximum tested dose | 152% | 109.53 % of control | 1.34 µM | 93% | – | – | – |
| CC(OCCN1CCCCCC1)(c1ccccc1)c1ccc(Cl)cc1 (centres unmarked) [RFM-000-944-9] | – | greater than maximum tested dose | 146% | 104.31 % of control | 1.87 µM | 95.3% | – | – | – |
| CCCCCCOC(=O)NC(=N)c1ccc(NCc2nc3cc(C(=O)N(CCC(=O)OCC)c4ccccn4)ccc3n2C)cc1 [RFM-002-982-3] | – | greater than maximum tested dose | 126% | 100.41 % of control | 3.13 µM | 106% | – | – | – |
| CN1CCN(CC/C=C2/c3ccccc3Sc3ccc(S(=O)(=O)N(C)C)cc32)CC1 [RFM-003-384-1] | 114% | – | 148% | – | 1.22 µM | – | greater than maximum tested dose | 116.45 % of control | – |
| CN(C)C(=O)NC1(c2ccccc2)CCN(CCC[C@]2(c3ccc(Cl)c(Cl)c3)CCCN(C(=O)c3ccccc3)C2)CC1 [RFM-003-485-5] | – | greater than maximum tested dose | 172% | 114.56 % of control | 1.64 µM | 109% | – | – | – |
| COC(=O)C1=C(C)NC(C)=C(C(=O)OCCCN2CCC(c3ccccc3)(c3ccccc3)CC2)[C@@H]1c1cccc([N+](=O)[O-])c1 [RFM-003-515-4] | – | – | 136% | – | 1.39 µM | – | greater than maximum tested dose | 83.07 % of control | 92.9% |
| COc1cc(Nc2ncc(F)c(Nc3ccc4c(n3)N(COP(=O)(O)O)C(=O)C(C)(C)O4)n2)cc(OC)c1OC [RFM-004-140-7] | 86.2% | greater than maximum tested dose | 93.7% | 134.69 % of control | 4.09 µM | – | – | – | – |
| CN(C)CCCN1c2ccccc2Sc2ccc(C(F)(F)F)cc21 [RFM-004-217-1] | 72.7% | – | 159% | – | 1.19 µM | – | greater than maximum tested dose | 110.23 % of control | – |
| CCCCC1=Cc2cc3c(cc2C1N1CCN(C)CC1)OCO3 (centres unmarked) [RFM-005-200-6] | – | greater than maximum tested dose | 145% | 112.43 % of control | 2.5 µM | 102% | – | – | – |
| CCN(CC)CCOc1ccc(-c2nc3cc(Cl)ccc3s2)cc1 [RFM-005-834-4] | – | greater than maximum tested dose | 91.6% | 104.24 % of control | 1.51 µM | 88.8% | – | – | – |
| CN1C[C@H](CNC(=O)OCc2ccccc2)C[C@@H]2c3cccc4c3c(cn4C)C[C@H]21 [RFM-005-941-6] | 117% | greater than maximum tested dose | 163% | 125.57 % of control | 1.26 µM | – | – | – | – |
| O=c1[nH]c2cc(Cl)ccc2n1C1CCN(CCCC(c2ccc(F)cc2)c2ccc(F)cc2)CC1 [RFM-008-181-2] | – | greater than maximum tested dose | 121% | 97.91 % of control | 1.84 µM | 107% | – | – | – |
| CC(CN(C)C)CN1c2ccccc2CCc2ccccc21 (centres unmarked) [RFM-008-630-6] | 114% | greater than maximum tested dose | 145% | 106.86 % of control | 1.47 µM | – | – | – | – |
| Cn1cc(C2=C(c3c4n(c5ccccc35)CCC(CN)C4)C(=O)NC2=O)c2ccccc21 (centres unmarked) [RFM-009-039-1] | – | greater than maximum tested dose | 154% | 111.69 % of control | 1.73 µM | 95.9% | – | – | – |
| CCCCc1oc2ccc(C(=O)OC(C)C)cc2c1C(=O)c1ccc(CCCN(CCCC)CCCC)cc1 [RFM-009-487-1] | – | greater than maximum tested dose | 122% | 97.65 % of control | 1.23 µM | 87.8% | – | – | – |
| CCCN(CCC)C(=O)C(Cc1ccc(OCCCN2CCN(C)CC2)cc1)NC(=O)c1ccc(Cl)cc1 (centres unmarked) [RFM-009-534-1] | – | greater than maximum tested dose | 135% | 104.27 % of control | 3.36 µM | 103% | – | – | – |
| CN[C@@H](CC(C)C)C(=O)NCCCC(c1ccc(F)cc1)c1ccc(F)cc1 [RFM-010-013-0] | – | greater than maximum tested dose | 136% | 111.66 % of control | 2.77 µM | 99.2% | – | – | – |
| CC(C(O)c1ccccc1)N(C)CC=C1c2ccccc2CCc2ccccc21 (centres unmarked) [RFM-010-015-2] | – | greater than maximum tested dose | 122% | 107.49 % of control | 1.96 µM | 107% | – | – | – |
| CC(C)C(=O)c1ccc(OCCCN2CCC(C(O)(c3ccc(F)cc3)c3ccc(F)cc3)CC2)cc1 [RFM-010-056-1] | – | greater than maximum tested dose | 119% | 122.17 % of control | 1.47 µM | 93.4% | – | – | – |
| OCCN1CCN(CCCC2c3ccc(F)cc3Sc3ccc(C(F)(F)F)cc32)CC1 (centres unmarked) [RFM-010-066-3] | – | greater than maximum tested dose | 148% | 109.58 % of control | 2.98 µM | 86.5% | – | – | – |
| CCOC(=O)/C=C/[C@H](C[C@@H]1CCNC1=O)NC(=O)[C@@H](CC(=O)[C@@H](NC(=O)c1cc(C)on1)C(C)C)Cc1ccc(F)cc1 [RFM-010-414-3] | – | greater than maximum tested dose | 94.6% | 93.65 % of control | 4.19 µM | 100% | – | – | – |
